In experiment [1] the test system is CT26 colon carcinoma cells. Kind of experiment: Observation of necrosis in tumor tissues after treatment (tumor images). The class given is in vivo. Particulars: 10 mg/kg intraperitoneal; discolored at 24 hours after injection; BALB/c mice. The method, then: Seven-week-old, female, specific-pathogen-free (BALB/c) white mice (weight: approximately 20 g) purchased from ORIENTBIO Inc. (Seoul Korea) were subcutaneously injected with 2×10^6 of CT26 colon carcinoma cells per mouse. When the tumor size became 3 mm in diameter, the control group was injected with a phosphate buffered saline (PBS) solution with 5% dextrose while the experimental group was intraperitoneally injected with 100 μL of sodium meta arsenite at a concentration of 10 mg/kg with 5% dextrose. After injection, the measurements of the size of tumors (volume=πab^2/6, where a and b are diameters of tumors) by using the caliper once every two days and the images of the tumors were recorded for 15 days. While the discoloration of the tissues of the mice injected without sodium meta arsenite was not observed for a certain period of time, the central part of tumors in the tissues of the white mice injected with sodium meta arsenite became discolored at 24 hours after the injection of sodium meta arsenite. As time went by, it was observed that the tumors became discolored regardless of the injection of sodium meta arsenite.

The subject of experiment [2] is α-tubulin. The experiment is described as follows: Western blot of isolated (soluble) and polymerized tubulin from HUVECs. Particulars: 1 uM, 10 uM and 20 uM, 24 hours, higher concentration. The class given is cell-based, Human. From the text: To investigate whether such apoptosis phenomenon is caused by a cytoskeletal abnormality that affects cell division and cell differentiation, the change in α-tubulin expression in the cytoskeleton was identified by the division of tubulin into isolated form (soluble, S) and polymerized form (ppt, P). HUVECs (obtained from ATCC) were cultivated in F25 culture flasks containing F-12K (Sigma) medium supplemented with 10% FBS and endothelial cell growth supplement (ECGS, E2759, Sigma). After cultivation for 24 hours, the cells were treated with sodium meta arsenite at a concentration of 1 uM, 10 uM and 20 uM. Cells were collected 24 hours after treatment. The collected cells were suspended in RIPA buffer (50 mM Tris, pH 7.5, 150 mM NaCl, 1% NP-40, 0.5% sodium deoxychloate, 0.1% SDS, protease inhibitor) at room temperature for 10 minutes and then centrifuged for 30 minutes at 22° C. at 13,200 rpm to separate the supernatant liquid from the sediment. RIPA solution was added to the sediment in the same amount and the sediment was crushed using an ultrasonic cell crusher. The protein from the supernatant liquid and the sediment were assayed using a BCA protein kit (Thermo, 23227) and then the same amount of protein (3 μg) was mixed with protein sample buffer and it was warmed up in a water bath in boiling water at 100° C. for five minutes. SDS-PAGE was conducted on a 10% gel. […]
Background: A western blot detects proteins with antibodies after separation by electrophoresis.

Experiment [3] has as its system α-tubulin. Kind of experiment: Western blot of total tubulin protein from HUVECs. In kind it is cell-based, Human. Particulars: 5, 10, 20 and 50 uM, 24 and 48 hours, higher concentration. The method, then: (§1) To analyze the change in the overall expression of tubulin, the total amount of tubulin protein was kept to identify by western blotting. HUVECs were cultured in F25 culture flasks containing F-12K (Sigma) medium supplemented with 10% FBS and endothelial cell growth supplement (ECGS, E2759, Sigma). After cultivation for 24 hours, the cells were treated with sodium meta arsenite at concentrations of 5 uM, 10 uM, 20 uM and 50 uM. At 24 hours and 48 hours after treatment, the cells were collected and washed with phosphate buffered saline (PBS) solution. The washed cells were reacted with THF solution (50 mM Tris-Hcl, pH 7.5, 100 mM NaCl, 2 mM EDTA, 1% NP-40, protease inhibitor) at 4° C. for 15 minutes and then broken down or destroyed by use of an ultrasonic cell crusher before SDS (0.5%) was added. Protein from the samples was assayed by using a BCA protein kit (Thermo, 23227) before the same amount of protein (3 μg) was mixed with protein sample buffer. […] warmed up in a water bath in boiling water at 100° C. for five minutes. SDS-PAGE was conducted using a 10% polyacrylamide gel. At the end of electrophoresis, the gel was transferred to nitrocellulose membrane in semi-dry method at room temperature at 220 mA for 40 minutes. […]

Experiment [4] has as its system β-tubulin. The experiment is described as follows: Western blot of total tubulin protein from HUVECs. The class given is cell-based, Human. Particulars: 5, 10, 20 and 50 uM, 24 and 48 hours, higher concentration. The method, then: as §1

Molecules are shown by their SMILES.

Turning to `O=[As][O-].[Na+]` [sodium meta arsenite], the “discoloration of the central part of tumors due to necrosis” value in experiment [1] is on record as “the tissues in the central part became discolored due to necrosis”. Also, in experiment [2], the “protein level in sediment (polymerized tubulin)” value is reported as “reduced the protein level” and the “protein level in supernatant liquid (isolated tubulin)” value is “reduced the protein level”. The “protein level of α-tubulin” value in experiment [3] is recorded as “reduced the protein level”. In experiment [4], the “protein level of β-tubulin” value is on record as “reduced the protein level”.

The values are drawn from US20120251628A1, “COMPOSITIONS AND METHODS FOR TREATMENT OF CANCER” (priority 2011, published 2012).
